Test results taken from paper PMC3249654 (The Open Virology Journal, 2011).
pIC50: −log10 of the molar value. Where “and” joins values, the source holds several entries; their conditions need not be identical. Equal values may be shown once.

Key:
[1] = system: influenza A(H1N1) viruses; settings: cited from earlier work
[2] = system: NA enzyme activity of influenza A(H1N1) viruses; type: biochemical, influenza A(H1N1) virus; settings: read-out: IC50-values of outliers with reduced zanamivir susceptibility

SMILES	average prevalence of ORV in Europe [1] [%]	pIC50 [2]
CCOC(=O)C1=C[C@@H](OC(CC)CC)[C@H](NC(C)=O)[C@@H](N)C1 [oseltamivir]	20.1	–
CC(=O)N[C@H]1[C@H]([C@H](O)[C@H](O)CO)OC(C(=O)O)=C[C@@H]1N=C(N)N [zanamivir]	–	8.51 and 8.47 and 8.28
